Measurements reported in patent US20020164348A1 (priority 2000, published 2002).

What was measured:
poliovirus polymerase [1] = target: T1, poliovirus polymerase (Poliovirus type 1, UniProt P03300)
poliovirus polymerase [2] = target: T1, poliovirus polymerase; remark: listed apart in the source
poliovirus polymerase [3] = target: T1, poliovirus polymerase; remark: listed apart in the source
[4] = target: lattices of poliovirus polymerase (Poliovirus type 1, UniProt P03300)
lattices of poliovirus polymerase, sequence (P03300 1749-2209 limits assumed): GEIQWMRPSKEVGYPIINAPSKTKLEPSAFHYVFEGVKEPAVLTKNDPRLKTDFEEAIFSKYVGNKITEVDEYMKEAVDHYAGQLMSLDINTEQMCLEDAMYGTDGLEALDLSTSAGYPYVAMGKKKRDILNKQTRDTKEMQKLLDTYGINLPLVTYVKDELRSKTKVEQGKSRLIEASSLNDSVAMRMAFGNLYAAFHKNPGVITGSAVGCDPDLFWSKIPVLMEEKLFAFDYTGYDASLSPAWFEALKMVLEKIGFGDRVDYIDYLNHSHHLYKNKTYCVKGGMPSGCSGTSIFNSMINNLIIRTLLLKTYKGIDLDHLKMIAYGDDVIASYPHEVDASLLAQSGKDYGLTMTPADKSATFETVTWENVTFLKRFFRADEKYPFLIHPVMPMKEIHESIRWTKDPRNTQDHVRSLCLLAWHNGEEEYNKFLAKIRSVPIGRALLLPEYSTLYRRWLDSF

T1 sequence (P03300 1749-2209 limits assumed): as above

With “KPHKCTFEGCRKSYSRSTNLRRHLNSH (SEQ ID NO:5) [Peptide 1]” the “cooperativity of the elongation reaction” value (poliovirus polymerase [1]) was “loss of cooperativity”, the “inhibition of poliovirus polymerase” value (poliovirus polymerase [1]) was “inhibits poliovirus polymerase effectively” and the “inhibition of the polymerase reaction” value (poliovirus polymerase [1]) was “marked inhibition”. The “amount of UTP incorporated” value (poliovirus polymerase [2]) was “diminished”, the UTP incorporation (poliovirus polymerase [3]) was “dramatic stimulation” and the “sheets and tubes of polymerase by electron microscopy” value [4] was “replaced by large aggregates and more narrow ribbons”.
